Laboratory results: PMC3048735 (The Journal of Biological Chemistry, 2011)

Molecular target: T1, TryP (TbTryP) (Trypanosoma brucei, UniProt Q71RY2)
T1 sequence (Q71RY2 1-199): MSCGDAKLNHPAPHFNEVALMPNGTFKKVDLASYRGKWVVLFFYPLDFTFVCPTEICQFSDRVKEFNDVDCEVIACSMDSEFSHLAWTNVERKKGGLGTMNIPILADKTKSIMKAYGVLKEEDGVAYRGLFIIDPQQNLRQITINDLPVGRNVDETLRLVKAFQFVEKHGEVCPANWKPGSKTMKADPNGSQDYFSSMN
Experiment: TryP-limited coupled peroxidase assay, NADPH consumption at […] nm
Type: biochemical

- IC50: 14.1 ± 0.8 µM
SMILES: O=C1C=CC(O)(c2nc3ccccc3s2)C=C1 [compound 1, PMX464]
